Measurements as given in paper PMC8811472, “Systematic In Vitro Evaluation of a Library of Approved and Pharmacologically Active Compounds for the Identification of Novel Candidate Drugs for KMT2A-Rearranged Leukemia” (Frontiers in Oncology, 2022).

Tests used:
MRC-5 cells = test: 72-hour resazurin-based cytotoxicity assay, MRC-5; format: cell-based, human; settings: normal lung
Protocol: (§1) All cell lines used in this study were mycoplasma-free and have been authenticated using STR profiling. Cells were cultured as previously described ([7], [8]). Characteristics of the leukemia cell lines used in this study are described in Supplementary Table 1 . Peripheral blood mononuclear cells from healthy donors were purchased from Australian Red Cross.
(§2) The cytotoxicity of drugs was assessed through resazurin-based assays and the inhibitory concentration resulting in 50% reduction of cell survival relative to control (IC50) was calculated as previously described ([7]). In synergy studies, cells were exposed to a dilution series of compounds, as single agents or in combination, in resazurin-based assays (72 hours) as described ([8]–[10]). The occurrence of synergy was determined with the Bliss Independence model as previously described ([8]–[10]). Bliss Prediction curves indicated the predicted percentage viability of the cells when exposed to the combination of compounds if both compounds work additively together. Synergy was visualised as the presence of a lower cell viability upon combination of two compounds compared to the viability predicted based on the presence of an additive effect of the compounds (i.e., the viability curve of the combination runs below the Bliss Prediction curve). The percentage of apoptotic cells was assessed by annexin V and 7-Aminoactinomycin D (7-AAD) (BD Biosciences, Australia) flow cytometry as previously described ([7]).

MOLM-13 cells = test: 72-hour resazurin-based cytotoxicity assay, MOLM-13; format: cell-based, human; settings: MOLM-13, KMT2A-r t(9;11), AML
Protocol: as §1, §2

RS4;11 cells = test: 72-hour resazurin-based cytotoxicity assay, RS4;11; set-up: species or system human; settings: RS4;11, KMT2A-r t(4;11), pre-B cell ALL
Protocol: as §1, §2

Jurkat cells = test: 72-hour resazurin-based cytotoxicity assay, Jurkat; set-up: species or system human; settings: KMT2A-wt, childhood T-cell ALL
Protocol: as §1, §2

THP-1 cells = test: 72-hour resazurin-based cytotoxicity assay, THP-1; format: cell-based, human; settings: THP-1, KMT2A-r t(9;11), infant AML
Protocol: as §1, §2

PER-485 cells [1] = test: 72-hour resazurin-based cytotoxicity assay, PER-485; format: cell-based, human; settings: PER-485, KMT2A-r t(4;11), infant ALL derived
Protocol: as §1, §2

CEM cells = test: 72-hour resazurin-based cytotoxicity assay, CEM; set-up: species or system human; settings: KMT2A-wt, childhood T-cell ALL
Protocol: as §1, §2

SEMK2 cells = test: 72-hour resazurin-based cytotoxicity assay, SEMK2; set-up: species or system human; settings: SEMK2, KMT2A-r t(4;11), pre-B cell childhood ALL
Protocol: as §1, §2

REH cells = test: 72-hour resazurin-based cytotoxicity assay, REH; set-up: species or system human; settings: KMT2A-wt, pre-B cell ALL
Protocol: as §1, §2

LNCaP cells = test: 72-hour resazurin-based cytotoxicity assay, LNCaP; format: cell-based, human; settings: prostate carcinoma
Protocol: as §1
as §2, with “The percentage of apoptotic cells was assessed by annexin V and 7-Aminoactinomycin D (7-AAD) (BD Biosciences, Australia) flow cytometry as previously described ([7]).” left out

MV4;11 cells = test: 72-hour resazurin-based cytotoxicity assay, MV4;11; format: cell-based, human; settings: MV4;11, KMT2A-r t(4;11), childhood AML
Protocol: as §1
as §2, with “The percentage of apoptotic cells was assessed by annexin V and 7-Aminoactinomycin D (7-AAD) (BD Biosciences, Australia) flow cytometry as previously described ([7]).” left out

[2] = system: peripheral blood mononuclear cells from healthy donors; test: 72-hour resazurin-based viability assay, PBMC from healthy donors; format: cell-based, human; settings: for IC50: PBMC, 72 h resazurin
Protocol: as §1, §2

WI-38 cells = test: 72-hour resazurin-based cytotoxicity assay, WI-38; format: cell-based, human; settings: WI-38, non-malignant, normal lung
Protocol: as §1
as §2, with “The percentage of apoptotic cells was assessed by annexin V and 7-Aminoactinomycin D (7-AAD) (BD Biosciences, Australia) flow cytometry as previously described ([7]).” left out

KOPN-8 cells = test: 72-hour resazurin-based cytotoxicity assay, KOPN-8; set-up: species or system human; settings: KOPN-8, KMT2A-r t(11;19), infant pre-B cell ALL
Protocol: as §1
as §2, with “The percentage of apoptotic cells was assessed by annexin V and 7-Aminoactinomycin D (7-AAD) (BD Biosciences, Australia) flow cytometry as previously described ([7]).” left out

[3] = system: NR5A1 target genes ENO1 and PKM; KMT2A target genes; test: qRT-PCR of gene expression after treatment; format: cell-based, human; settings: three hours
Protocol: Total RNA was isolated using a Qiagen RNeasy kit and cDNA synthesized using the iScript cDNA Synthesis Kit (BioRad). Quantitative PCR was run and analyzed on Applied Biosystem’s QuantStudio5 Real-Time PCR Detection System, using Taqman gene expression assays for genes NR5A1 (Hs00610436_m1), GUSB (Hs99999908_m1) and HPRT (Hs99999909_m1) Relative expressions were determined as previously described ([7]).

MOLM13 cells = test: Synergy study (Bliss Independence model), MOLM13; format: cell-based, human; settings: MOLM13, 72 h
Protocol: as §2

KMT2A-wt REH cells = test: Synergy study (Bliss Independence model), REH; format: cell-based, human; settings: 72 h
Protocol: as §2

BE(2)C cells = test: 72-hour resazurin-based cytotoxicity assay, BE(2)C; format: cell-based, human; settings: childhood neuroblastoma
Protocol: as §1
as §2, with “The percentage of apoptotic cells was assessed by annexin V and 7-Aminoactinomycin D (7-AAD) (BD Biosciences, Australia) flow cytometry as previously described ([7]).” left out

MCF-7 cells = test: 72-hour resazurin-based cytotoxicity assay, MCF-7; format: cell-based, human; settings: MCF-7, breast adenocarcinoma
Protocol: as §1
as §2, with “The percentage of apoptotic cells was assessed by annexin V and 7-Aminoactinomycin D (7-AAD) (BD Biosciences, Australia) flow cytometry as previously described ([7]).” left out

27/87 cells = test: 72-hour resazurin-based cytotoxicity assay, 27/87; format: cell-based, human; settings: 27/87, endometrioid ovarian cancer
Protocol: as §1
as §2, with “The percentage of apoptotic cells was assessed by annexin V and 7-Aminoactinomycin D (7-AAD) (BD Biosciences, Australia) flow cytometry as previously described ([7]).” left out

[4] = Mouse liver microsomal stability assay; format: in vitro ADME; settings: mouse liver microsomes
From the text: Compound half-life was estimated by mouse liver microsomal stability assays as described ([10]).

KP-MO-TS cells = test: 72-hour resazurin-based cytotoxicity assay, KP-MO-TS; format: cell-based, human; settings: CALM-AF10, AML
Protocol: as §1
as §2, with “The percentage of apoptotic cells was assessed by annexin V and 7-Aminoactinomycin D (7-AAD) (BD Biosciences, Australia) flow cytometry as previously described ([7]).” left out

PER-485 cells [5] = test: Synergy study (Bliss Independence model), PER-485; format: cell-based, human; settings: PER-485, 72 h
Protocol: as §2

KELLY cells = test: 72-hour resazurin-based cytotoxicity assay, KELLY; format: cell-based, human; settings: neuroblastoma
Protocol: as §1
as §2, with “The percentage of apoptotic cells was assessed by annexin V and 7-Aminoactinomycin D (7-AAD) (BD Biosciences, Australia) flow cytometry as previously described ([7]).” left out

[6] = system: KMT2A-r cells (PER-485 and THP-1); test: Annexin V positive cells, KMT2A-r cells; format: cell-based, human; settings: as early as 6 hours post-exposure; IC50 doses
Protocol: as §2

PER-703 cells = test: 72-hour resazurin-based cytotoxicity assay, PER-703; format: cell-based, human; settings: PER-703, KMT2A-r t(1;11), infant ALL derived
Protocol: as §1
as §2, with “The percentage of apoptotic cells was assessed by annexin V and 7-Aminoactinomycin D (7-AAD) (BD Biosciences, Australia) flow cytometry as previously described ([7]).” left out

PER-490 cells = test: 72-hour resazurin-based cytotoxicity assay, PER-490; format: cell-based, human; settings: PER-490, KMT2A-r t(4;11), infant ALL
Protocol: as §1
as §2, with “The percentage of apoptotic cells was assessed by annexin V and 7-Aminoactinomycin D (7-AAD) (BD Biosciences, Australia) flow cytometry as previously described ([7]).” left out

HEY cells = test: 72-hour resazurin-based cytotoxicity assay, HEY; format: cell-based, human; settings: ovarian carcinoma
Protocol: as §1
as §2, with “The percentage of apoptotic cells was assessed by annexin V and 7-Aminoactinomycin D (7-AAD) (BD Biosciences, Australia) flow cytometry as previously described ([7]).” left out

PER-785 cells = test: 72-hour resazurin-based cytotoxicity assay, PER-785; format: cell-based, human; settings: PER-785, KMT2A-r t(4;11), infant ALL
Protocol: as §1
as §2, with “The percentage of apoptotic cells was assessed by annexin V and 7-Aminoactinomycin D (7-AAD) (BD Biosciences, Australia) flow cytometry as previously described ([7]).” left out

H460 cells = test: 72-hour resazurin-based cytotoxicity assay, H460; format: cell-based, human; settings: H460, lung carcinoma
Protocol: as §1
as §2, with “The percentage of apoptotic cells was assessed by annexin V and 7-Aminoactinomycin D (7-AAD) (BD Biosciences, Australia) flow cytometry as previously described ([7]).” left out

PER-826 cells = test: 72-hour resazurin-based cytotoxicity assay, PER-826; format: cell-based, human; settings: PER-826, KMT2A-r complex t(11;19), infant ALL
Protocol: as §1
as §2, with “The percentage of apoptotic cells was assessed by annexin V and 7-Aminoactinomycin D (7-AAD) (BD Biosciences, Australia) flow cytometry as previously described ([7]).” left out

U937 cells = test: 72-hour resazurin-based cytotoxicity assay, U937; format: cell-based, human; settings: U937, CALM-AF10, AML
Protocol: as §1
as §2, with “The percentage of apoptotic cells was assessed by annexin V and 7-Aminoactinomycin D (7-AAD) (BD Biosciences, Australia) flow cytometry as previously described ([7]).” left out

[7] = system: cleavage of PARP and caspase-3; test: Western blot of apoptotic markers; format: cell-based, human; settings: sensitive KMT2A-r leukemia cells, not in KMT2A-wt
Protocol: Western blotting experiments were performed as previously described ([7]). Antibodies used are listed in Supplementary Table 2 . Actin was used as a loading control.

[8] = system: THP-1 and REH versus 2-Cl-ATP-sensitive KMT2A-r cells; test: Resazurin-based viability assays of nucleoside analogs in leukemia cell line panel; set-up: species or system human
Protocol: as §2

CN(C(=O)CN(CCO)CC(=O)N(C)C(C)(C)Cc1ccccc1)C(C)(C)Cc1ccccc1 [Oxethazaine, oxethazaine]
IC50 (MRC-5 cells; Homo sapiens, MRC5, MRC-5, non-malignant): > 20 µM | IC50 (MOLM-13 cells; Homo sapiens): 3.8 µM | IC50 (RS4;11 cells; Homo sapiens, RS4-11, 72 h): 9 µM | IC50 (Jurkat cells; Homo sapiens): 18.9 µM | IC50 (THP-1 cells; Homo sapiens): 15 µM | IC50 (PER-485 cells [1]; Homo sapiens): 3.6 µM | IC50 (CEM cells; Homo sapiens, CCRF-CEM): 10.6 µM | IC50 (SEMK2 cells; Homo sapiens): 8.9 µM | IC50 (REH cells; Homo sapiens): 4.9 µM

CCOC(=O)C(C)Oc1cccc2c(=O)n(CC(=O)Nc3ccc4c(c3)OCCO4)ccc12 (stereo not shown) [SID7969543]
IC50 (LNCaP cells): > 20 µM | IC50 (MV4;11 cells): 2.5 µM | IC50 ([2]; Donor 1): > 20 µM | IC50 ([2]; Donor 2): > 20 µM | IC50 ([2]; Donor 3): > 20 µM | viability of peripheral blood mononuclear cells (PBMC) ([2]; healthy donors, doses that inhibit KMT2A-r leukemia cells): did not significantly impact the viability | IC50 (WI-38 cells): > 20 µM | IC50 (KOPN-8 cells): > 20 µM | expression of genes not regulated by NR5A1 (HOXA9, HOXA10, MEIS1, MYB) ([3]; KMT2A-r cell lines): remained unchanged | expression of NR5A1 target genes ENO1 and PKM ([3]; sensitive KMT2A-r cell lines, before induction of apoptosis): significantly decreased | combination effect (Bliss) (MOLM13 cells; with cytarabine): synergy | combination effect (Bliss) (MOLM13 cells; with daunorubicin): synergy | combination effect (Bliss) (MOLM13 cells; with etoposide): additive | combination effect (Bliss) (MOLM13 cells; with mitoxantrone): additive | combination effect (Bliss) (MOLM13 cells; with topotecan): additive | IC50 (MRC-5 cells; MRC-5, non-malignant): > 20 µM | combination effect (Bliss) (KMT2A-wt REH cells; with cytarabine): No synergy | combination effect (Bliss) (KMT2A-wt REH cells; with daunorubicin): No synergy | combination effect (Bliss) (KMT2A-wt REH cells; with etoposide): No synergy | IC50 (BE(2)C cells): > 20 µM | IC50 (MCF-7 cells): > 20 µM | IC50 (27/87 cells): > 20 µM | half-life in microsomal stability assays [4]: short half-life | IC50 (KP-MO-TS cells): 1.9 µM | IC50 (MOLM-13 cells): 1 µM | combination effect (Bliss) (PER-485 cells [5]; with cytarabine): synergy | combination effect (Bliss) (PER-485 cells [5]; with daunorubicin): synergy | combination effect (Bliss) (PER-485 cells [5]; with etoposide): synergy | combination effect (Bliss) (PER-485 cells [5]; with mitoxantrone): additive | combination effect (Bliss) (PER-485 cells [5]; with topotecan): additive | IC50 (RS4;11 cells): > 20 µM | IC50 (Jurkat cells): > 20 µM | IC50 (THP-1 cells): 2.6 µM | IC50 (KELLY cells): > 20 µM | percentage of annexin V-positive KMT2A-r cells [6]: significantly increased | IC50 (PER-703 cells): 4.9 µM | IC50 (PER-485 cells [1]): 1.4 µM | IC50 (PER-490 cells): 1.9 µM | IC50 (CEM cells): > 20 µM | IC50 (HEY cells): > 20 µM | IC50 (SEMK2 cells): > 20 µM | IC50 (PER-785 cells): 5 µM | IC50 (H460 cells): > 20 µM | IC50 (PER-826 cells): > 20 µM | IC50 (REH cells): > 20 µM | IC50 (U937 cells): 1.9 µM | cleavage of PARP and caspase-3 [7]: increased cleavage

Nc1nc(Cl)nc2c1ncn2[C@H]1C[C@H](O)[C@@H](CO)O1 [cladribine]
response of 2-Cl-ATP-resistant cell lines THP-1 and REH compared with 2-Cl-ATP-sensitive KMT2A-r cells [8]: less responsive

O=C(O)c1cc2c(cn1)[nH]c1ccccc12 [β-CCB, β-carboline-3-carboxylate]
IC50 (PER-485 cells [1]): 2.6 µM
